US20140341983A1, “SMART™ SOLID ORAL DOSAGE FORMS” (priority 2011, published 2014)
Where two headings read alike, the source gives them in different places.

Columns and labels:
[1] = @ 25° C., experimental; cited from earlier work
[2] = cited from earlier work
[3] = D-limonene recovery from placebo SL powder by LCMS (stability); type: physicochemical
Method: Three replicate 30 mg portions of this powder were removed immediately after preparation and extracted with acetonitrile to recover the D-limonene. The extracts were analyzed by liquid chromatography-mass spectrometry (LCMS). This was repeated with three more portions after four hours and again after eight hours (FIG. 26).

[4] = Aim 1: breath kinetics and dose-response after sublingual solutions (SAW); type: in vivo, human
Method: Dose-response relationships were determined in four study participants following sublingual administration of solutions containing D-limonene and methyl salicylate. […] Five seconds after administration of the solution, the participant would blow a single five second breath into the SAW sensor. […] The participant kept his or her mouth closed when not providing a sample and refrained from breathing through the mouth or talking during the collection period. In addition, the more promising solutions (7, 12 and 16) were tested in triplicate to estimate reproducibility within individuals.

[5] = cited from earlier work; remark: listed apart in the source
[6] = Breath 2-butanone after ingestion of food or 2-butanol taggant; conditions: foods: two servings; 2-butanol taggant: 40 mg ingested, n=7
Method: To assess the interference produced by food, 6 subjects rapidly consumed (<5 min) two servings (≈16 fl. Oz) of yogurt or 2 servings (≈60 g) of cheddar cheese and breath samples were collected for 60 min after ingestion.

[7] = octanol-water coefficient; cited from earlier work
[8] = Oral vanillin detection by direct breath LCMS (OrbiTrap); type: in vivo, human; conditions: 30 μg vanillin in 10 μL neat ethanol on tongue
Description: In the lower panel of FIG. 14, note how an internal standard (semi-volatile organic acid) stays constant for each of the six breaths.

[9] = dose that can be taken for remainder of life without regulatory concern

| Compound | VP (vapor pressure) [1] | Water Sol ([2]; @ 25° C.) | permissible daily exposure (PDE) ([5]; orally) | log P [7] | further results |
| --- | --- | --- | --- | --- | --- |
| CC(C)[C@@H]1CC[C@@H](C)C[C@H]1O (racemic) [DL-menthol] | 0.0637 @ 25 °C mmHg | 456 @ 25 °C mg/L | – | – | – |
| C=C(C)[C@H]1CC=C(C)CC1 [D-limonene, 4-isopropenyl-1-methylcyclohexene] | – | – | – | – | D-limonene dose recovered from SL powder ([3]; at eight hours): 11%; D-limonene dose recovered from SL powder ([3]; at four hours): 22%; D-limonene dose recovered from SL powder ([3]; just after preparation): Approximately 65%; breath concentration measured at 5 seconds lost by 50 seconds ([4]; human, in vivo): 78%; time course of flavorant concentration in exhaled breath ([4]; in vivo): decayed exponentially over time |
| CCC(C)O (stereo not drawn) [Formulation 2-butanol, 2-butanol] | – | – | 300 mg orally per day | – | permissible daily exposure (PDE) [5, 9]: 300 mg/day; Maximum 2-butanone (Cmax) in breath [6]: ≈ 549 ppb; Tmax of 2-butanone in breath [6]: 6.7 ± 0.6 min |
| CCCC(C)=O [Formulation 2-pentanone, 2-pentanone] | – | – | 250 mg orally per day | – | permissible daily exposure (PDE) [5, 9]: 250 mg/day |
| C=C(C)[C@@H]1CC=C(C)C(=O)C1 [L-carvone] | 0.103 @ 25 °C mmHg | 1,310 @ 25 °C mg/L | – | 2.71 | – |
| CCO [ethanol, reference compound] | – | – | 166.7 mg orally per day | – | – |
| COC(=O)c1ccccc1N [methyl anthranilate] | – | 2,850 @ 25 °C mg/L | – | 1.88 | – |
| COC(=O)c1ccccc1O [methyl salicylate, methyl-2-hydroxybenzoate] | 0.0343 @ 25 °C mmHg | – | – | 2.55 | Water Sol ([2]; @ 30° C.): 700 @ 30 °C mg/L; time course of flavorant concentration in exhaled breath ([4]; after a single SL administration): decayed exponentially over time; breath concentration measured at 5 seconds lost by 50 seconds ([4]; single SL administration, average): 50% |
| CC(C)c1cccc(C(C)C)c1O [propofol, reference compound] | 0.00305 @ 25 °C mmHg | 124 @ 25 °C mg/L | – | – | – |
| COc1cc(C=O)ccc1O [vanillin, 4-hydroxy-3-methoxybenzaldehyde] | 1.18E-04 @ 25 °C mmHg | 11,000 @ 25 °C mg/L | – | – | persistence in human breath [8]: 2 min; persistence in human breath ([8]; listed as Vanillin): ≈ 2 min |
